From patent EP4215193A1, “METHOD FOR THE CONSERVATIVE TREATMENT OF ENDOMETRIAL POLYPS” (Kiselev, Vsevolod Ivanovich, priority 2020, dated 2022)

Assays:
[1] = Clinical comparison of efficacy of DIM + βCD complex and crystalline DIM taken orally; type: in vivo; settings: equal dosages, all studied groups of patients
Description: Clinical studies have compared the efficacy of the water-soluble DIM + βCD complex and crystalline 3,3'-diindolylmethane in equal dosages when taken orally. […]

[2] = system: pathological neoangiogenesis; settings: subcutaneously, 5 mg / kg, daily; cited from earlier work

Compound | clinical response [1] | inhibition of pathological neoangiogenesis [2] [%]
3,3'-diindolylmethane [Crystal DIM] | absence of such | –
c1ccc2c(Cc3c[nH]c4ccccc34)c[nH]c2c1 [DIM, 3,3'-diindolylmethane] | – | 74
